From patent US4618692A, “4-carbamoyloxy-oxazaphosphorins” (Asta-Werke Aktiengesellschaft, priority 1984, dated 1986) come the findings set out here.

The nature of this data set: cytotoxicity in vitro (general statement). It is filed as cell-based.

For `O=P1(N(CCCl)CCCl)NCCCO1` (stereo not shown) [cyclophosphamide, 2-[bis-(2-chloroethyl)-amino]-2-oxo-tetrahydro-2H-1,3,2-oxazaphosphorin], the cytotoxicity in vitro entry is reported as “practically no cytotoxic effect in vitro”.
